ChEMBL document CHEMBL3286266, “Development of novel benzomorpholine class of diacylglycerol acyltransferase I inhibitors” (ACS Med Chem Lett, 2014)
In brackets after ≈: the same amount, converted by molar mass.

Tests used:
[1] = molecular target: T1, Diacylglycerol O-acyltransferase 1 (Mus musculus, UniProt Q9Z2A7); assay: Inhibition of mouse DGAT1 expressed in Sf9 insect cells using 1,2-dioleoyl-sn-glycerol and [14C]-palmitoyl-CoA substrate by scintillation counting analysis
T1 sequence (Q9Z2A7 whole entry): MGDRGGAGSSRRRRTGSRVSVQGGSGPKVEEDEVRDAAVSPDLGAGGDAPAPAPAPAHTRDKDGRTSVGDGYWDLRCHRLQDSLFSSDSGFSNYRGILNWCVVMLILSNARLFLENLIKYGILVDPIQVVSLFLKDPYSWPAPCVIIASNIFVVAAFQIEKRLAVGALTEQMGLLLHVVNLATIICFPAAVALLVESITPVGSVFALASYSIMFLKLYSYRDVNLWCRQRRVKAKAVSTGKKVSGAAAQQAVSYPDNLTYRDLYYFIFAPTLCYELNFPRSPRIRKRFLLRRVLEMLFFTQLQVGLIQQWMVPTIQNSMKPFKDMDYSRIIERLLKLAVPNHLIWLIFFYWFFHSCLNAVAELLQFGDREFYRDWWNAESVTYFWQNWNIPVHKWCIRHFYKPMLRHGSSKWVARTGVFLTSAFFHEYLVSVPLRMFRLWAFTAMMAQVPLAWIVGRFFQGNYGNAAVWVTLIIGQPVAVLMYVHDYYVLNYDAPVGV

[2] = molecular target: T2, Diacylglycerol O-acyltransferase 1 (Homo sapiens, UniProt O75907); assay: Inhibition of human DGAT1 expressed in Sf9 insect cells using 1,2-dioleoyl-sn-glycerol and [14C]-palmitoyl-CoA substrate by scintillation counting analysis
T2 sequence (O75907 whole entry): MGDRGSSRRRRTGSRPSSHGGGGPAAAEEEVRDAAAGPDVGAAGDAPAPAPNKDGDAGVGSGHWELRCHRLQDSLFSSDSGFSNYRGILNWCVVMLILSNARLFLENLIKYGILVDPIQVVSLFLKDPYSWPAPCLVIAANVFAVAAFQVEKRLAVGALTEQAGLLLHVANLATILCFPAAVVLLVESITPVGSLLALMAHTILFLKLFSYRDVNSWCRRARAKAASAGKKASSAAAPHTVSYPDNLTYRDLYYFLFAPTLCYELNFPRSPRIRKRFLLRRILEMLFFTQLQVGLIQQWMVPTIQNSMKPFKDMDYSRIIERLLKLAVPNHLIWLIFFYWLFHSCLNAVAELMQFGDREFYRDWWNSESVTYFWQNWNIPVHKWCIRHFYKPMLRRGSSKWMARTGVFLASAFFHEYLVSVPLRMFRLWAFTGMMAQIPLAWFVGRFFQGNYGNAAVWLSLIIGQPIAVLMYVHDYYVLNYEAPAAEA

Mus musculus [3] = assay: Reduction in triglycerides level in mouse at 3 mg/kg, po after 2 hrs by postprandial triglyceride assay; assay type: functional
Mus musculus [4] = assay: Reduction in triglycerides level in mouse at 10 mg/kg, po after 2 hrs by postprandial triglyceride assay; assay type: functional
[5] = molecular target: T3, Sterol O-acyltransferase 2 (Homo sapiens, UniProt O75908); assay: Inhibition of human ACAT2 expressed in Sf9 insect cells using [14C]-oleoyl-CoA by scintillation counting analysis
T3 sequence (O75908 whole entry): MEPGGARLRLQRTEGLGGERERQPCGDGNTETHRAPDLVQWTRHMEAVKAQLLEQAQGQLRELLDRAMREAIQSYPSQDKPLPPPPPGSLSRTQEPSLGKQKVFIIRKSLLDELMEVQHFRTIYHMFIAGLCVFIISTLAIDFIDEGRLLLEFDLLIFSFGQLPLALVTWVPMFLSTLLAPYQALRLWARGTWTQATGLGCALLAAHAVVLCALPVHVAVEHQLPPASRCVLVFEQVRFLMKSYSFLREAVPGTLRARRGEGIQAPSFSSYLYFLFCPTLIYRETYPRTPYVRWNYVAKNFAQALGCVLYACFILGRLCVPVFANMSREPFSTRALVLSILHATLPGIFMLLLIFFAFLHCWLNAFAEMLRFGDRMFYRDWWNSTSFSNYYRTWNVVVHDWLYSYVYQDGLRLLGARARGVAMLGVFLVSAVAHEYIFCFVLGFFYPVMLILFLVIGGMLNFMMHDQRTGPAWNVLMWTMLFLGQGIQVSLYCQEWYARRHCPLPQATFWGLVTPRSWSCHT

[6] = AUC in mouse at 10 mg/kg; assay type: ADME, organism-based; design: dose 10 mg/kg; details: plasma
CYP1A1 = molecular target: T4, CYP1A1 (Homo sapiens, UniProt P04798); assay: Induction of CYP1A1 (unknown origin) at 30 uM relative to control; assay type: ADME; details: read-out: FC
T4 sequence (P04798 whole entry): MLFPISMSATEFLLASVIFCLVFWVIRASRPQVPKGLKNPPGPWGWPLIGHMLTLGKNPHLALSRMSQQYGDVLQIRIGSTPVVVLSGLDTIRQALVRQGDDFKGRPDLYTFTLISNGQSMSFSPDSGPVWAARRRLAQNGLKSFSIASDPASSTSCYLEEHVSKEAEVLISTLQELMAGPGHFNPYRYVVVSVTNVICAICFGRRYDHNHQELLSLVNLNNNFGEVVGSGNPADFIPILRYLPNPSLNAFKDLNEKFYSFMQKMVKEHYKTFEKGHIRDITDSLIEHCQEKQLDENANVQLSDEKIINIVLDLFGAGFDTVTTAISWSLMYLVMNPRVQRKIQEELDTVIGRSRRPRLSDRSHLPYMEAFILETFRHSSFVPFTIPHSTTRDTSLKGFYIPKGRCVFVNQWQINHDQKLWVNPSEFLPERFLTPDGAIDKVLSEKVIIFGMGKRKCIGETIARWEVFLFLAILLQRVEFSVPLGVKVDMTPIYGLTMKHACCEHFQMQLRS

[7] = Clearance in rat liver hepatocytes measured per million cells; assay type: ADME, cell-based, Hepatocyte; details: read-out: CLH
Homo sapiens [8] = species: Homo sapiens; assay: Selectivity for human DGAT1 over human DGAT2
[9] = Solubility of the compound; assay type: physicochemical
[10] = Permeability in human Caco2 cells; assay type: ADME, cell-based; details: Caco-2, read-out: permeability
[11] = Clearance in human liver hepatocytes measured per million cells; assay type: ADME, cell-based, Hepatocyte; details: read-out: CLH
Homo sapiens [12] = species: Homo sapiens; assay: Selectivity for human DGAT1 over human ACAT

| SMILES | IC50 [1] [nM] | IC50 [2] [nM] | other results |
| --- | --- | --- | --- |
| O=C(O)C[C@H]1CC[C@@H](c2ccc(-c3ccc4c(c3)OCCN4C(=O)Nc3ccccc3)cc2)CC1 | 45 | 52 | inhibition in vivo at 3 mg/kg (Mus musculus [3]): 2% |
| CC(C)c1ccccc1NC(=O)N1CCOc2cc(-c3ccc([C@H]4CC[C@H](CC(=O)O)CC4)cc3)ccc21 | 69 |  |  |
| CS(=O)(=O)NC(=O)C[C@H]1CC[C@H](c2ccc(-c3ccc4c(c3)OCCN4C(=O)Nc3ccccc3)cc2)CC1 | 7300 |  |  |
| O=C(O)C[C@H]1CC[C@H](c2ccc(-c3ccc4c(c3)OCCN4c3nc4ccccc4o3)cc2)CC1 | > 10000 | > 10000 |  |
| O=C(O)C[C@H]1CC[C@H](c2ccc(-c3ccc4c(c3)N(C(=O)Nc3ccccc3)CCO4)cc2)CC1 | > 10000 | > 10000 |  |
| CCC1CN(C(=O)Nc2ccccc2)c2ccc(-c3ccc(OCC4(C(=O)O)CCC4)nc3)cc2O1 (stereo unspecified) | 110 |  |  |
| O=C(O)C[C@H]1CC[C@H](c2ccc(-c3ccc4c(c3)OCCN4C(=O)Nc3ccccc3C(=O)O)cc2)CC1 | > 10000 | > 10000 |  |
| O=C(O)C[C@H]1CC[C@H](c2ccc(-c3ccc4c(c3)OCCN4C(=O)NCc3ccccc3)cc2)CC1 | 110 |  |  |
| O=C(O)C[C@H]1CC[C@H](c2ccc(-c3cccc4c3OCCN4C(=O)Nc3ccccc3)cc2)CC1 | > 10000 | > 10000 |  |
| O=C(Nc1ccccc1)N1CCOc2cc(-c3ccc([C@H]4CC[C@H](Cc5nnn[nH]5)CC4)cc3)ccc21 | 170 |  | inhibition in vivo at 10 mg/kg (Mus musculus [4]): 9% |
| O=C(O)C[C@H]1CC[C@H](c2ccc(-c3ccc4c(c3)OCCN4S(=O)(=O)Cc3ccccc3)cc2)CC1 | > 10000 | > 10000 |  |
| CCC1CN(C(=O)Nc2ccccc2)c2ccc(-c3ccc(OC[C@H]4C[C@@H]4C(=O)O)nc3)cc2O1 (relative stereo) | 210 |  |  |
| O=C(O)C[C@H]1CC[C@H](c2ccc(-c3ccc4c(n3)OCCN4C(=O)Nc3ccccc3)cc2)CC1 | 550 |  |  |
| CCc1ccccc1NC(=O)N1CC(C)Oc2cc(-c3ccc([C@H]4CC[C@H](CC(=O)O)CC4)cc3)ccc21 (stereo partly specified) | 50 | 110 | inhibition in vivo at 3 mg/kg (Mus musculus [3]): 92% |
| CCCC1CN(C(=O)Nc2ccccc2)c2ccc(-c3ccc([C@H]4CC[C@H](CC(=O)O)CC4)cc3)cc2O1 (stereo partly specified) | 160 |  |  |
| CC1CN(C(=O)Nc2ccccc2)c2ccc(-c3ccc([C@H]4CC[C@H](CC(=O)O)CC4)cc3)cc2O1 (stereo partly specified) | 33 | 91 | IC50 [5]: 5000 nM; inhibition in vivo at 10 mg/kg (Mus musculus [4]): 85%; AUC [6]: 79 µM·h |
| O=C(O)[C@@H]1CCC[C@H]1C(=O)c1ccc(-c2ccc3c(c2)OCCN3C(=O)Nc2ccccc2)cc1 | 830 |  |  |
| CCC1CN(C(=O)Nc2ccccc2)c2ccc(-c3ccc([C@H]4CC[C@H](CC(=O)O)CC4)cc3)cc2O1 (stereo partly specified) | 45 |  | inhibition in vivo at 10 mg/kg (Mus musculus [4]): 88%; AUC [6]: 63 µM·h |
| CCc1ccccc1NC(=O)N1CCOc2cc(-c3ccc([C@H]4CC[C@H](CC(=O)O)CC4)cc3)ccc21 | 37 |  |  |

| SMILES | IC50 [1] [nM] | IC50 [2] [nM] | other results |
| --- | --- | --- | --- |
| O=C(O)C[C@H]1CC[C@H](c2ccc(-c3ccc4c(c3)OCCN4C(=O)Cc3ccccc3)cc2)CC1 | 110 |  |  |
| O=C(O)C[C@H]1CC[C@H](c2ccc(-c3ccc4c(ccn4C(=O)Nc4ccccc4)c3)cc2)CC1 |  |  | fold induction at 30 µM (CYP1A1): 3; inhibition in vivo at 10 mg/kg (Mus musculus [4]): 45%; hepatocyte CLint [7]: 3.9 µL/min/1e6 cells; Selectivity ratio (Homo sapiens [8]): 100; solubility [9]: 20 µM (≈ 9.05 µg/mL); Papp [10]: 17 ×10⁻⁶ cm/s; hepatocyte CLint [11]: 7.6 µL/min/1e6 cells; Selectivity ratio (Homo sapiens [12]): 100 |
| CC(C)C1CN(C(=O)Nc2ccccc2)c2ccc(-c3ccc([C@H]4CC[C@H](CC(=O)O)CC4)cc3)cc2O1 (stereo partly specified) | 300 |  |  |
| CC1Oc2cc(-c3ccc([C@H]4CC[C@H](CC(=O)O)CC4)cc3)ccc2N(C(=O)Nc2ccccc2)C1=O (stereo partly specified) | > 10000 | > 10000 |  |
| O=C(C[C@H]1CC[C@H](c2ccc(-c3ccc4c(c3)OCCN4C(=O)Nc3ccccc3)cc2)CC1)NO | 920 |  |  |
| O=C(O)C[C@H]1CC[C@H](c2ccc(-c3ccc4c(c3)OCCN4C(=O)Nc3ccccc3C(F)(F)F)cc2)CC1 | 16 |  |  |
| CCC1CN(C(=O)Nc2ccccc2)c2ccc(-c3cnc(OCC(C)(C)C(=O)O)nc3)cc2O1 (stereo unspecified) | 310 |  |  |
| CCC1CN(C(=O)Nc2ccccc2)c2ccc(-c3ccc(OCC4(C(=O)O)CC4)nc3)cc2O1 (stereo unspecified) | 90 |  |  |
| O=C(O)C[C@H]1CC[C@H](c2ccc(-c3ccc4c(c3)OCCN4C(=O)NC3CCCCC3)cc2)CC1 | 160 |  |  |
| Nc1ccccc1NC(=O)N1CCOc2cc(-c3ccc([C@H]4CC[C@H](CC(=O)O)CC4)cc3)ccc21 | 5200 |  |  |
| O=C(O)C[C@H]1CC[C@H](c2ccc(-c3ccc4c(c3)OCCN4C(=O)Nc3cc(C(F)(F)F)ccc3F)cc2)CC1 | 1200 |  |  |
| CC(C(=O)O)[C@H]1CC[C@H](c2ccc(-c3ccc4c(c3)OCCN4C(=O)Nc3ccccc3)cc2)CC1 (stereo partly specified) | 200 |  |  |
| C[C@H]1CN(C(=O)Nc2ccccc2)c2ccc(-c3ccc([C@H]4CC[C@H](CC(=O)O)CC4)cc3)cc2O1 | 360 | 530 |  |
| O=C(O)C[C@H]1CC[C@H](c2ccc(-c3ccc4c(c3)OCCN4C(=O)NCCCCc3ccccc3)cc2)CC1 | 36 |  | inhibition in vivo at 10 mg/kg (Mus musculus [4]): 23% |
| CCc1ccccc1NC(=O)N1C[C@H](C)Oc2cc(-c3ccc([C@H]4CC[C@H](CC(=O)O)CC4)cc3)ccc21 | 53 | 85 | inhibition in vivo at 3 mg/kg (Mus musculus [3]): 46% |
| O=C(O)C[C@H]1CC[C@H](c2ccc(-c3cnc4c(c3)OCCN4C(=O)Nc3ccccc3)cc2)CC1 | > 10000 | > 10000 |  |
| CCOc1ccc(NC(=O)N2CCOc3cc(-c4ccc([C@H]5CC[C@H](CC(=O)O)CC5)cc4)ccc32)cc1 | 34 |  |  |
| CC1COc2cc(-c3ccc([C@H]4CC[C@H](CC(=O)O)CC4)cc3)ccc2N1C(=O)Nc1ccccc1 (stereo partly specified) | 630 |  |  |
